Results reported in US7718645B2, “Substituted bicyclolactam compounds” (Pfizer Inc., priority 2007, dated 2010).
Where two headings read alike, the source gives them in different places.

Target: T1, Human full-length diacylglycerol:acylCoA acyltransferase 1 (DGAT-1) (Homo sapiens, UniProt O75907)
T1 construct: Human full-length diacylglycerol:acylCoA acyltransferase 1 (DGAT-1) was expressed in Sf9 insect cells; made in house; host or cells: Sf9 insect cells (baculovirus)
T1 sequence (O75907 1-488): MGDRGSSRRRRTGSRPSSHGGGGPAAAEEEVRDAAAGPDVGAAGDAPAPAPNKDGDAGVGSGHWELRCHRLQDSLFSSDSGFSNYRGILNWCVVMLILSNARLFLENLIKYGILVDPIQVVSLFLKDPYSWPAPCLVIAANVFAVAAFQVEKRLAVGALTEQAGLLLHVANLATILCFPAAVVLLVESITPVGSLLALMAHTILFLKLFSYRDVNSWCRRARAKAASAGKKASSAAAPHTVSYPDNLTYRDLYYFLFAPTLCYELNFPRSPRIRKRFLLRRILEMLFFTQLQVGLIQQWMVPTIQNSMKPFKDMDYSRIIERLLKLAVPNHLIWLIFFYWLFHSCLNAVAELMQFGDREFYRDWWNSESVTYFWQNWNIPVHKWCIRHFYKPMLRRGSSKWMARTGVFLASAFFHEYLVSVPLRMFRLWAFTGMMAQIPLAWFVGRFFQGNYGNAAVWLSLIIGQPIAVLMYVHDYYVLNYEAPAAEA
Assay: In vitro assay for DGAT-1 inhibition ([14C]decanoylCoA, Sf9 membrane fraction)
Type: biochemical
Method: Human full-length diacylglycerol:acylCoA acyltransferase 1 (DGAT-1) was expressed in Sf9 insect cells which are then lysed and a crude membrane fraction (105,000×g pellet) was prepared.
The cells were cultured as follows. Sf9 cells (20 L) were infected with 4 mL of DGAT1 Baculovirus Infected Insect Cells (BIIC) for 72 hours in a Wave Bioreactor System 20/50P (Wave Biotec/GE Healthcare).
Crude DGAT-1 microsomes were prepared as follows. Cell pellets were washed once with ice-cold Dulbecco's phosphate-buffered saline. Cells were collected in tabletop centrifuge (Beckman GS-6KR), 15 minutes, 2000×g, 4° C. Twenty (20) mL of ice-cold Microsome Buffer (MB) was added per 5 g of cell pellet. The suspension was passed through a microfluidizer 3 times (18K psi). The lysate was transferred to centrifuge tubes and centrifuged for 20 minutes at 5000×g (Beckman-Coulter, Inc. Allegra® 64R High-Speed Refrigerated Benchtop Centrifuge, F0650 rotor) at 4° C. The supernatant was transferred to Ultracentrifuge tubes and centrifuged at […] for 1 hr in a Beckman Ti-45 rotor, 4° C. The supernatant fluid was discarded. The pellet was resuspended in 70 mL of MB by sonication. The microsome concentration was determined using Bio-Rad Protein DC Protein Assay. The microsomes were filter sterilized with a 0.22 μm filter. The samples were portioned, flash frozen and stored at −80° C.
Inhibitors in DMSO were pre-incubated with membranes before initiating the DGAT-1 reaction by the addition of decanoylCoA. […] The inhibitors were present at a range of eight concentrations to generate an apparent IC50 for each compound. […] Specifically, the eight concentrations used were 10 μM, 3 μM, 1 μM, 300 nM, 100 nM, 30 nM, 10 nM and 3 nM.
The reactions were allowed to proceed for 1.5 h at room temperature and then terminated by the addition of 10 μl of HCl (0.5 M). Reaction mixtures were neutralized by the addition of 15 μl of tris(hydroxy-methyl)aminomethane (1M, pH 8.0) and then mixed by trituration with 37.5 μl of Microscint™-E (Perkin Elmer).
Where this DGAT-1 inhibition assay was performed on a compound more than once, an inhibition range is also provided for that compound.

[1] = apparent IC50, eight inhibitor concentrations 10 μM to 3 nM, read-out: IC50
[2] = inhibition range where the assay was performed on a compound more than once, read-out: IC50 range

| IC50 [1] [nM] | IC50 [2] [nM] | SMILES |
| --- | --- | --- |
| 12.9 | 4.5 to 22.2 | C[C@@H]1CN(c2ccc(C3CCC(CC#N)CC3)c(F)c2)C(=O)c2c(N)ncnc2O1 (stereo partly drawn) [Example 48, (R)-2-(4-(4-(4-amino-8-methyl-5-oxo-7,8-dihydropyrimido[5,4-f][1,4]oxazepin-6(5H)-yl)-2-fluorophenyl)cyclohexyl)acetonitrile] |
| 7.8 | 5.8 to 10.5 | Nc1ncnc2c1C(=O)N(c1ccc(C3CCC(C(=O)O)CC3)cc1)CCO2 (centres unmarked) [Example 49, 4-[4-(4-Amino-5-oxo-7,8-dihydro-5H-9-oxa-1,3,6-triaza-benzocyclohepten-6-yl)-phenyl]-cyclohexanecarboxylic Acid] |
| 47.3 | 45.2 to 49.5 | COC(=O)C1CCC(c2ccc(N3CCOc4ncnc(N)c4C3=O)cc2)CC1 (centres unmarked) [Example 50, 4-[4-(4-Amino-5-oxo-7,8-dihydro-5H-9-oxa-1,3,6-triaza-benzocyclohepten-6-yl)-phenyl]-cyclohexanecarboxylic Acid Methyl Ester] |
| 254 | – | COC(=O)Cc1ccc(Oc2ccc(N3CCOc4ncnc(N)c4C3=O)cc2)cc1 [Example 54, Methyl {4-[4-(4-amino-5-oxo-7,8-dihydropyrimido[5,4-f][1,4]oxazepin-6(5H)-yl)phenoxy]phenyl}acetate] |
| 78.3 | – | COC(=O)C1C2C1[C@H]1C[C@@H]2C[C@@H]1c1ccc(N2CCOc3ncnc(N)c3C2=O)cc1 (stereo partly drawn) [Example 56, (1R,5R,6S)-6-[4-(4-Amino-5-oxo-7,8-dihydro-5H-9-oxa-1,3,6-triaza-benzocyclohepten-6-yl)-phenyl]-tricyclo[3.2.1.0*2,4*]octane-3-carboxylic Acid Methyl Ester] |
